Assay: xn = mol fraction of the nth substance listed
Details: 318.15 K, Liquid, Vibrating tube method

CCC(=O)c1ccccc1 [ethyl phenyl ketone] + Cc1ccccc1
mass density [kg/m3]
Details	x2 = 0	x2 = 0.1048	x2 = 0.2025	x2 = 0.3006	x2 = 0.3991	x2 = 0.4998	x2 = 0.6004	x2 = 0.7036	x2 = 0.8028	x2 = 0.902
100 kPa	988.3	976.2	965	952.8	940	926.14	911.27	895.5	879.2	861.9
2130 kPa	989.6	977.6	966.4	954.3	941.4	927.61	912.78	897	880.8	863.6
4150 kPa	990.9	978.9	967.7	955.6	942.8	929.03	914.26	898.5	882.4	865.2
6180 kPa	992.1	980.1	969	956.9	944.1	930.44	915.7	900	883.9	866.8
8210 kPa	993.3	981.4	970.2	958.2	945.5	931.83	917.14	901.5	885.4	868.4
10230 kPa	994.6	982.7	971.5	959.5	946.8	933.2	918.57	903	886.9	870
11250 kPa	995.2	983.3	972.1	960.1	947.5	933.86	919.25	903.7	887.7	870.7
12260 kPa	995.8	983.9	972.8	960.8	948.1	934.53	919.93	904.4	888.4	871.5
14290 kPa	997	985.1	974	962	949.4	935.85	921.32	905.8	889.8	873
16310 kPa	998.1	986.3	975.2	963.3	950.7	937.19	922.68	907.2	891.3	874.5
18340 kPa	999.3	987.5	976.4	964.5	952	938.52	924.03	908.6	892.7	876
20370 kPa	1000.4	988.7	977.6	965.7	953.2	939.75	925.33	909.9	894.1	877.4
22390 kPa	1001.6	989.9	978.8	967	954.5	941.04	926.66	911.2	895.5	878.9
24420 kPa	1002.7	991	980	968.1	955.7	942.28	927.93	912.5	896.8	880.3
26450 kPa	1003.8	992.1	981.1	969.3	956.8	943.5	929.18	913.8	898.2	881.6
28470 kPa	1004.9	993.3	982.2	970.5	958	944.7	930.43	915.1	899.5	883
29490 kPa	1005.5	993.8	982.8	971.1	958.6	945.34	931.09	915.7	900.1	883.7
30500 kPa	1006	994.4	983.4	971.6	959.2	945.93	931.69	916.4	900.8	884.3
32530 kPa	1007.1	995.5	984.5	972.8	960.4	947.12	932.92	917.6	902.1	885.7
34550 kPa	1008.2	996.6	985.6	973.9	961.5	948.29	934.11	918.8	903.3	887
36580 kPa	1009.2	997.7	986.7	975	962.7	949.45	935.3	920	904.6	888.3
38600 kPa	1010.3	998.7	987.8	976.1	963.7	950.58	936.48	921.2	905.8	889.5
39620 kPa	1010.8	999.3	988.3	976.6	964.3	951.19	937.08	921.9	906.4	890.2

From the NIST ThermoML archive (doi:10.1016/j.jct.2004.10.011)
